Laboratory results: PMC5936891, “A focused library synthesis and cytotoxicity of quinones derived from the natural product bolinaquinone” (Royal Society Open Science, 2018)
Entries after “also recorded” stand apart in the source; their conditions may differ.

Assays:
SJ-G2 (glioblastoma) = test: MTT in vitro growth inhibition assay, SJ-G2; assay type: cell-based; conditions: for inhibition at 25 µM: 25 µM of drug, 72 h, read-out: Percentage of Cell Growth Inhibition SJ-G2
[1] = test system: panel of 11 cancer cell lines and one normal cell line; test: Cytotoxicity across the whole cell line panel (MTT); assay type: cell-based; conditions: for activity at the initial screening concentration (to proceed to GI50 determination): 25 µM single dose
Source text: With the desired bolinaquinone analogues 12–43 in hand, we examined their cytotoxicity against a panel of 11 tumour cell lines: HT29 (colon carcinoma), U87 and SJ-G2 (glioblastoma), MCF-7 (breast carcinoma), A2780 (ovarian carcinoma), H460 (lung carcinoma), A431 (skin carcinoma), Du145 (prostate carcinoma), BE2-C (neuroblastoma), MIA (pancreatic carcinoma), SMA (spontaneous murine astrocytoma) and a normal breast cell line (MCF10A). The inclusion of the MCF-10A cell line allowed a determination of a crude measure of relative toxicity while noting that the ultimate arbiter of toxicity requires in vivo evaluation. All analogues were initially screened at a 25 µM drug concentration.
Stock solutions were prepared as follows and stored at −20°C: drugs were stored as 40 mM solutions in DMSO. All cell lines were cultured in a humidified atmosphere 5% CO2 at 37°C. The cancer cell lines were maintained in Dulbecco's modified Eagle's medium (DMEM) (Trace Biosciences, Australia) supplemented with 10% fetal bovine serum, 10 mM sodium bicarbonate, penicillin (100 IU ml^−1), streptomycin (100 µg ml^−1) and glutamine (4 mM). The non-cancer MCF10A cell line was cultured in DMEM:F12 (1 : 1) cell culture media, 5% heat-inactivated horse serum, supplemented with penicillin (50 IU ml^−1), streptomycin (50 µg ml^−1), 20 mM Hepes, L-glutamine (2 mM), epidermal growth factor (20 ng ml^−1), hydrocortisone (500 ng ml^−1), cholera toxin (100 ng ml^−1) and insulin (10 ug ml^−1).
Cells in logarithmic growth were transferred to 96-well plates. Cytotoxicity was determined by plating cells in duplicate in 100 µl medium at a density of 2500–4000 cells per well. On day 0 (24 h after plating), when the cells were in logarithmic growth, 100 μl of medium with or without the test agent was added to each well. After 72 h, drug exposure growth inhibitory effects were evaluated using the MTT (3-[4,5-dimethylthiazol-2-yl]-2,5-diphenyl-tetrazolium bromide) assay and the absorbance read at 540 nm. Percentage growth inhibition was determined at a fixed drug concentration of 25 µM. A value of 100% is indicative of complete cell growth inhibition. Those analogues showing appreciable percentage growth inhibition underwent further dose–response analysis allowing for the calculation of a GI50 value. This value is the drug concentration at which cell growth is 50% inhibited based on the difference between the optical density values on day 0 and those at the end of drug exposure.

A431 (skin carcinoma) = test: MTT in vitro growth inhibition assay, A431; assay type: cell-based; conditions: Homo sapiens; for inhibition at 25 µM: A-431, 25 µM of drug, 72 h, read-out: Percentage of Cell Growth Inhibition A431
[2] = test system: MIA (pancreatic carcinoma); test: MTT in vitro growth inhibition assay, MIA; assay type: cell-based; conditions: for inhibition at 25 µM: 25 µM of drug, 72 h, read-out: Percentage of Cell Growth Inhibition MIA
[3] = test system: Du145 (prostate carcinoma); test: MTT in vitro growth inhibition assay, Du145; assay type: cell-based; conditions: Homo sapiens; for inhibition at 25 µM: DU-145, 25 µM of drug, 72 h, read-out: Percentage of Cell Growth Inhibition Du145
BE2-C (neuroblastoma) = test: MTT in vitro growth inhibition assay, BE2-C; assay type: cell-based; conditions: Homo sapiens, BE(2)-C, 72 h; for inhibition at 25 µM: 25 µM of drug, read-out: Percentage of Cell Growth Inhibition BE2-C
U87 (glioblastoma) = test: MTT in vitro growth inhibition assay, U87; assay type: cell-based; conditions: for inhibition at 25 µM: 25 µM of drug, 72 h, read-out: Percentage of Cell Growth Inhibition U87
MCF-7 (breast carcinoma) = test: MTT in vitro growth inhibition assay, MCF-7; assay type: cell-based; conditions: Homo sapiens; for inhibition at 25 µM: MCF7, 25 µM of drug, 72 h, read-out: Percentage of Cell Growth Inhibition MCF-7
H460 (lung carcinoma) = test: MTT in vitro growth inhibition assay, H460; assay type: cell-based; conditions: Homo sapiens; for inhibition at 25 µM: NCI-H460, 25 µM of drug, 72 h, read-out: Percentage of Cell Growth Inhibition H460
[4] = test system: A2780 (ovarian carcinoma); test: MTT in vitro growth inhibition assay, A2780; assay type: cell-based; conditions: Homo sapiens; for inhibition at 25 µM: 25 µM of drug, 72 h, read-out: Percentage of Cell Growth Inhibition A2780
[5] = test system: MCF10A (normal breast cell line); test: MTT in vitro growth inhibition assay, MCF10A; assay type: cell-based; conditions: Homo sapiens, MCF-10A; for inhibition at 25 µM: 25 µM of drug, 72 h, read-out: Percentage of Cell Growth Inhibition MCF10A
[6] = test system: SMA (spontaneous murine astrocytoma); test: MTT in vitro growth inhibition assay, SMA; assay type: cell-based; conditions: Mus musculus; for inhibition at 25 µM: 25 µM of drug, 72 h, read-out: Percentage of Cell Growth Inhibition SMA
HT29 (colon carcinoma) = test: MTT in vitro growth inhibition assay, HT29; assay type: cell-based; conditions: Homo sapiens; for inhibition at 25 µM: HT-29, 25 µM of drug, 72 h, read-out: Percentage of Cell Growth Inhibition HT29
[7] = test system: HCT-116 colon carcinoma cells; conditions: cited from earlier work

## CCCNC1=CC(=O)C(NCCC)=C(c2ccccc2-c2ccccc2)C1=O [compound 41, 3-(Biaryl-2-yl)-2,5-bis-(propylamino)cyclohexa-2,5-diene-1,4-dione]
SJ-G2 (glioblastoma)
  inhibition at 25 µM: 60 ± 2%
SJ-G2 (glioblastoma); 72 h drug exposure
  GI50: 3500 ± 1000 nM
[1]
  activity at the initial screening concentration (to proceed to GI50 determination): sufficient activity
[1]; 41 vs parent 29, 43 vs parent 33, on introduction of amine substituents
  potency enhancement over parent analogue: greater than or equal to 20 fold
[1]; average over the cell line panel, read-out: average GI50
  GI50: 2500 nM
A431 (skin carcinoma)
  inhibition at 25 µM: 90 ± 1%
A431 (skin carcinoma); A-431, 72 h, 72 h drug exposure
  GI50: 2000 ± 100 nM
[2]
  inhibition at 25 µM: 76 ± 1%
[2]; 72 h drug exposure
  GI50: 1900 nM
[3]
  inhibition at 25 µM: 71 ± 2%
[3]; DU-145, 72 h, 72 h drug exposure
  GI50: 1900 ± 100 nM
BE2-C (neuroblastoma)
  inhibition at 25 µM: 74 ± 7%
BE2-C (neuroblastoma); 72 h drug exposure
  GI50: 1900 nM
U87 (glioblastoma)
  inhibition at 25 µM: 82 ± 3%
U87 (glioblastoma); 72 h drug exposure
  GI50: 5100 ± 1000 nM
MCF-7 (breast carcinoma)
  inhibition at 25 µM: 70 ± 3%
MCF-7 (breast carcinoma); MCF7, 72 h drug exposure
  GI50: 2000 ± 100 nM
H460 (lung carcinoma)
  inhibition at 25 µM: 62 ± 1%
H460 (lung carcinoma); NCI-H460, 72 h drug exposure
  GI50: 2300 ± 100 nM
[4]
  inhibition at 25 µM: 68 ± 2%
[4]; 72 h drug exposure
  GI50: 2000 ± 100 nM
[5]
  inhibition at 25 µM: 83 ± 2%
[5]; normal breast cell line, 72 h drug exposure
  GI50: 1700 ± 200 nM
[6]
  inhibition at 25 µM: 68 ± 6%
[6]; 72 h drug exposure
  GI50: 3300 ± 1000 nM
other
  melting point: 177 to 179 °C
HT29 (colon carcinoma)
  inhibition at 25 µM: 75 ± 2%
HT29 (colon carcinoma); HT-29, 72 h drug exposure
  GI50: 1900 nM

## COC1=CC(=O)C(OC)=C(c2cccc(OC)c2)C1=O [compound 19, 3-(3-Methoxyphenyl)-2,5-dimethoxycyclohexa-2,5-diene-1,4-diene]
SJ-G2 (glioblastoma)
  inhibition at 25 µM: 26 ± 12%
[1]
  activity at the initial screening concentration (to proceed to GI50 determination): not sufficiently active
A431 (skin carcinoma)
  inhibition at 25 µM: 22 ± 2%
[2]
  inhibition at 25 µM: 20 ± 6%
[3]
  inhibition at 25 µM: 24 ± 6%
BE2-C (neuroblastoma)
  inhibition at 25 µM: 70 ± 5%
U87 (glioblastoma)
  inhibition at 25 µM: 20 ± 5%
MCF-7 (breast carcinoma)
  inhibition at 25 µM: 36 ± 14%
H460 (lung carcinoma)
  inhibition at 25 µM: 19 ± 1%
[4]
  inhibition at 25 µM: 60 ± 11%
[5]
  inhibition at 25 µM: 15 ± 3%
[6]
  inhibition at 25 µM: 40 ± 8%
other
  melting point: 72 to 75 °C
HT29 (colon carcinoma)
  inhibition at 25 µM: 13 ± 4%

## COC1=CC(=O)C(O)=C(C[C@@]2(C)[C@H](C)[C@@H]3CCCC(C)(C)C3=C[C@@H]2C)C1=O [compound 3, mamanuthaquinone]
[7]
  GI50: 5580 nM

## COC1=CC(=O)C(OC)=C(c2cccc(OC)c2OC)C1=O [compound 22, 2,5-Dimethoxy-3-(2,3-dimethoxyphenyl)cyclohexa-2,5-diene-1,4-dione]
SJ-G2 (glioblastoma)
  inhibition at 25 µM: 23 ± 10%
[1]
  activity at the initial screening concentration (to proceed to GI50 determination): not sufficiently active
A431 (skin carcinoma)
  inhibition at 25 µM: 35 ± 5%
[2]
  inhibition at 25 µM: 24 ± 4%
[3]
  inhibition at 25 µM: 23 ± 9%
BE2-C (neuroblastoma)
  inhibition at 25 µM: 75 ± 8%
U87 (glioblastoma)
  inhibition at 25 µM: 14 ± 8%
MCF-7 (breast carcinoma)
  inhibition at 25 µM: 16 ± 10%
H460 (lung carcinoma)
  inhibition at 25 µM: 20 ± 2%
[4]
  inhibition at 25 µM: 44 ± 8%
[5]
  inhibition at 25 µM: 18 ± 2%
[6]
  inhibition at 25 µM: 31 ± 7%
other
  melting point: 122 to 125 °C
HT29 (colon carcinoma)
  inhibition at 25 µM: 15 ± 1%

## COC1=CC(=O)C(OC)=C(c2cccc(-c3ccccc3)c2)C1=O [compound 28, 3-Biphenyl-3-yl-2,5-dimethoxycyclohexa-2,5-diene-1,4-dione]
SJ-G2 (glioblastoma)
  inhibition at 25 µM: 18 ± 3%
[1]
  cytotoxicity spectrum across the panel: broad-spectrum active
  activity at the initial screening concentration (to proceed to GI50 determination): not sufficiently active; also recorded: did not proceed to GI50 determination
A431 (skin carcinoma)
  inhibition at 25 µM: < 10%
[2]
  inhibition at 25 µM: < 10%
[3]
  inhibition at 25 µM: 12 ± 1%
BE2-C (neuroblastoma)
  inhibition at 25 µM: 59 ± 23%
U87 (glioblastoma)
  inhibition at 25 µM: 12 ± 9%
MCF-7 (breast carcinoma)
  inhibition at 25 µM: 27 ± 1%
H460 (lung carcinoma)
  inhibition at 25 µM: 12 ± 5%
[4]
  inhibition at 25 µM: 52 ± 17%
[5]
  inhibition at 25 µM: < 10%
[6]
  inhibition at 25 µM: 36 ± 8%
other
  melting point: 172 to 174 °C
HT29 (colon carcinoma)
  inhibition at 25 µM: 16 ± 2%
